Columns and labels:
[1] = xn = mol fraction of the nth substance listed; settings: 101 kPa, Liquid; for speed of sound: Frequency=3 MHz, Sing-around technique in a fixed-path interferometer; for mass density: Vibrating tube method
[2] = 101 kPa, Liquid; for speed of sound: Frequency=3 MHz, Sing-around technique in a fixed-path interferometer; for mass density: Vibrating tube method
[3] = refractive index (Na D-line) (dimensionless); settings: 298.15 K; 101.33 kPa; Liquid; Standard Abbe refractometry

CCCCO [butan-1-ol] + Cc1ccccc1
[1]
Settings | mass density, 298.15 K [kg/m3] | mass density, 308.15 K [kg/m3] | mass density, 318.15 K [kg/m3] | mass density, 328.15 K [kg/m3] | speed of sound, 298.15 K [m/s] | speed of sound, 308.15 K [m/s] | speed of sound, 318.15 K [m/s] | speed of sound, 328.15 K [m/s]
x2 = 0.2008 | 818.72 | 810.48 | 802.18 | 793.77 | 1248 | 1212.2 | 1176.5 | 1141.2
x2 = 0.4064 | 830.53 | 821.82 | 813.05 | 804.18 | 1255.5 | 1217.6 | 1180.1 | 1143
x2 = 0.5993 | 840.92 | 831.87 | 822.79 | 813.62 | 1263.8 | 1224.6 | 1185.7 | 1147.5
x2 = 0.7995 | 851.36 | 842.08 | 832.78 | 823.42 | 1277.3 | 1237.1 | 1197.3 | 1158.2

Cc1ccccc1 [toluene]
[2]
Settings | mass density [kg/m3] | speed of sound [m/s]
298.15 K | 862.18 | 1305.3
308.15 K | 852.87 | 1262.5
318.15 K | 843.58 | 1220.2
328.15 K | 834.29 | 1178.5

Settings | refractive index
[3] | 1.49393

COC(C)(C)C [2-methoxy-2-methylpropane]
[2]
Settings | mass density [kg/m3] | speed of sound [m/s]
298.15 K | 735.21 | 1036.3
308.15 K | 724.64 | 990.46
318.15 K | 714 | 944.87
328.15 K | 703.29 | –

Settings | refractive index
[3] | 1.36648

CCCCO [butan-1-ol]
[2]
Settings | mass density [kg/m3] | speed of sound [m/s]
298.15 K | 805.73 | 1240
308.15 K | 798.07 | 1206.6
318.15 K | 790.37 | 1173.4
328.15 K | 782.58 | 1140.4

Settings | refractive index
[3] | 1.39733

CCCCO [butan-1-ol] + COC(C)(C)C
[1], x2 = 0
Settings | mass density [kg/m3] | speed of sound [m/s]
298.15 K | 805.73 | 1240
308.15 K | 798.07 | 1206.6
318.15 K | 790.37 | 1173.4
328.15 K | 782.58 | 1140.4

— the NIST ThermoML archive (doi:10.1016/j.jct.2015.06.009)
